Here are results for one molecule from doi:10.1101/758409v1 (biorxiv, 2019).

In the experiment the target is DDA1-DDB1ΔB-DCAF15Δpro triplex with R1R2 of RBM39 (Homo sapiens, UniProt Q14498+Q66K64, Q66K64:DEL276-383). In words: TR-FRET, SPLAM-induced ternary complex formation, Eu-anti-His and APC-anti-FLAG. In kind it is binding. (TR-FRET usually uses a lanthanide donor and a delayed reading to cut background.)

Molecules are shown by their SMILES.

What is called EC50 is the concentration giving half of the maximal effect. High values mean lower potency in that assay, low ones higher potency in that assay. Regarding `NS(=O)(=O)c1ccc(S(=O)(=O)Nc2cccc3c(Cl)c[nH]c23)cc1` [indisulam], a half-maximal effect (EC50) was put at 5 nM.
